Assay results: patent US20080280837A1, “Biologically Active Compounds with Anti-Angiogenic Properties” (priority 2004, published 2008)

Target: T1, Human SST5 somatostatin receptor (SSTR5) (Homo sapiens, UniProt P35346)
T1 construct: expressed in transfected cells; host or cells: HEK-293 EBNA
Test: Filter plate assay for SST5 receptor, displacement of [125I]SST-14
Format: binding
Method in brief: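 HEK-293 EBNA membranes expressing human SST5 (5.5 μg) incubated 60 min at 25 °C with 4 nM [125I]SST-14 and compound in pH 7.5 Tris/EGTA/MgCl2/sucrose buffer. Bound radioactivity collected on PEI-coated glass fiber filters and counted; triplicate 1:5 dilution series from 125 μM, non-specific binding with excess cold ligand.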

T1 sequence (P35346 whole entry): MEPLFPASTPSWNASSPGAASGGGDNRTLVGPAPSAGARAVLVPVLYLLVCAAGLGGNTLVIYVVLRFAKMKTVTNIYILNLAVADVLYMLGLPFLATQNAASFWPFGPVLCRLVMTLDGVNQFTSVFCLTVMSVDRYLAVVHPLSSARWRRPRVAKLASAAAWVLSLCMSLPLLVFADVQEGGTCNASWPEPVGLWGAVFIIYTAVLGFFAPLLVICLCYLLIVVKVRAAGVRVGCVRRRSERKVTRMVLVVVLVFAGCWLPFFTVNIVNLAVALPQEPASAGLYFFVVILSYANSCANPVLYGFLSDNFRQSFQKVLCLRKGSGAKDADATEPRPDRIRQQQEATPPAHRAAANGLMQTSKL

With `COC[C@H]1OC(OCCc2ccccc2)[C@H](NC(=O)CCCN)[C@H](OCc2ccc3ccccc3c2)[C@@H]1O` (stereo partly drawn) [Compound 28] the “SSTR5 Inhib 0.5 uM % (inhibition of binding of SST-14 to SSTR5)” value (“SSTR5 Inhib 0.5 uM %” for short) was 70% and the “SSTR5 Inhib 10 uM % (inhibition of binding of SST-14 to SSTR5)” value (shortened to “SSTR5 Inhib 10 uM %”) was 96%.

In the case of `CSC1O[C@H](COCc2ccc(Cl)cc2)[C@@H](O)[C@@H](OCc2ccc3ccccc3c2)[C@H]1NC(=O)CNC(=N)N` (stereo partly drawn) [Compound 150], the “SSTR5 Inhib 0.5 uM %” value is reported as 42% and the “SSTR5 Inhib 10 uM %” value is reported as 76%.

For `CSC1O[C@H](COCc2ccccc2)[C@@H](O)[C@@H](OCc2ccc3ccccc3c2)[C@H]1NC(=O)CNC(=N)N` (stereo partly drawn) [Compound 72], the “SSTR5 Inhib 0.5 uM %” value was 51% and the “SSTR5 Inhib 10 uM %” value was 89%.

In the case of `CSC1O[C@H](COCc2ccc3ccccc3c2)[C@@H](O)[C@@H](OCc2ccc(-c3ccccc3)cc2)[C@H]1NC(=O)CN` (stereo partly drawn) [Compound 97], the “SSTR5 Inhib 0.5 uM %” value is reported as 41% and the “SSTR5 Inhib 10 uM %” value is reported as 85%.

For `COC[C@H]1OC(OCc2ccc(Cl)cc2)[C@H](NC(=O)CCCNC(=N)N)[C@H](OCc2ccccc2)[C@@H]1O` (stereo partly drawn) [Compound 176], the “SSTR5 Inhib 0.5 uM %” value was 37% and the “SSTR5 Inhib 10 uM %” value was 71%.

`COC[C@H]1OC(OCc2ccc3ccccc3c2)[C@H](NC(=O)CCCNC(=N)N)[C@H](OCc2ccc(Cl)cc2)[C@@H]1O` (stereo partly drawn) [Compound 17] was tested, and the “SSTR5 Inhib 0.5 uM %” value was 84% and the “SSTR5 Inhib 10 uM %” value was 98%.

With `CSC1O[C@H](COCc2ccc(-c3ccccc3)cc2)[C@@H](O)[C@@H](OCc2ccc(Cl)cc2)[C@H]1NC(=O)CCCN` (stereo partly drawn) [Compound 148] the “SSTR5 Inhib 0.5 uM %” value was 38% and the “SSTR5 Inhib 10 uM %” value was 76%.

With `CO[C@H]1[C@H](O)[C@@H](COCc2ccc(Cl)cc2)OC(OCc2ccc(Cl)cc2)[C@@H]1NC(=O)CCCN` (stereo partly drawn) [Compound 122] the “SSTR5 Inhib 0.5 uM %” value was 39% and the “SSTR5 Inhib 10 uM %” value was 81%.

In the case of `COC[C@H]1OC(OCc2ccc(-c3ccccc3)cc2)[C@H](NC(=O)CCNC(=N)N)[C@@H](OCc2ccc(Cl)cc2)[C@@H]1O` (stereo partly drawn) [Compound 108], the “SSTR5 Inhib 0.5 uM %” value is reported as 47% and the “SSTR5 Inhib 10 uM %” value is reported as 83%.

With `COC[C@H]1OC(OCc2ccccc2)[C@H](NC(=O)CNC(=N)N)[C@H](OCc2ccc(-c3ccccc3)cc2)[C@@H]1O` (stereo partly drawn) [Compound 119] the “SSTR5 Inhib 0.5 uM %” value was 37% and the “SSTR5 Inhib 10 uM %” value was 81%.

For `CO[C@H]1[C@H](O)[C@@H](COCc2ccc(-c3ccccc3)cc2)OC(OCc2ccc(-c3ccccc3)cc2)[C@@H]1NC(=O)CCCNC(=N)N` (stereo partly drawn) [Compound 157], the “SSTR5 Inhib 0.5 uM %” value was 20% and the “SSTR5 Inhib 10 uM %” value was 75%.

`COC[C@H]1OC(OCc2ccccc2)[C@H](NC(=O)CCCNC(=N)N)[C@H](OCc2ccc3ccccc3c2)[C@@H]1O` (stereo partly drawn) [Compound 100] was tested, and the “SSTR5 Inhib 0.5 uM %” value was 59% and the “SSTR5 Inhib 10 uM %” value was 84%.

`COC1C(O)C(COCc2ccc(-c3ccccc3)cc2)OC(OCc2ccc(Cl)cc2)C1NC(=O)CNC(=N)N` (stereo not drawn) [Compound 177] was tested, and the “SSTR5 Inhib 0.5 uM %” value was 47% and the “SSTR5 Inhib 10 uM %” value was 71%.

In the case of `COC[C@H]1OC(OCc2ccc3ccccc3c2)[C@H](NC(=O)CCNC(=N)N)[C@H](OCc2ccccc2)[C@@H]1O` (stereo partly drawn) [Compound 85], the “SSTR5 Inhib 0.5 uM %” value is reported as 54% and the “SSTR5 Inhib 10 uM %” value is reported as 87%.

`CSC1O[C@H](COCc2ccccc2)[C@@H](O)[C@@H](OCc2ccc3ccccc3c2)[C@H]1NC(=O)CCCNC(=N)N` (stereo partly drawn) [Compound 91] was tested, and the “SSTR5 Inhib 0.5 uM %” value was 53% and the “SSTR5 Inhib 10 uM %” value was 86%.

In the case of `CSC1O[C@H](COCc2ccc3ccccc3c2)[C@@H](O)[C@@H](OCc2ccc3ccccc3c2)[C@H]1NC(=O)CNC(=N)N` (stereo partly drawn) [Compound 131], the “SSTR5 Inhib 0.5 uM %” value is reported as 52% and the “SSTR5 Inhib 10 uM %” value is reported as 80%.

`CSC1O[C@H](COCc2ccc(-c3ccccc3)cc2)[C@@H](O)[C@@H](OCc2ccc3ccccc3c2)[C@H]1NC(=O)CNC(=N)N` (stereo partly drawn) [Compound 139] was tested, and the “SSTR5 Inhib 0.5 uM %” value was 34% and the “SSTR5 Inhib 10 uM %” value was 79%.

With `COC[C@H]1OC(OCc2ccc3ccccc3c2)[C@H](NC(=O)CCNC(=N)N)[C@@H](OCc2ccc(-c3ccccc3)cc2)[C@@H]1O` (stereo partly drawn) [Compound 86] the “SSTR5 Inhib 0.5 uM %” value was 58% and the “SSTR5 Inhib 10 uM %” value was 87%.

For `COC[C@H]1OC(OCc2ccc(-c3ccccc3)cc2)[C@H](NC(=O)CCCN)[C@@H](OCc2ccc3ccccc3c2)[C@@H]1O` (stereo partly drawn) [Compound 38], the “SSTR5 Inhib 0.5 uM %” value was 79% and the “SSTR5 Inhib 10 uM %” value was 95%.

With `COC[C@H]1OC(OCc2ccccc2)[C@H](NC(=O)CCCN)[C@H](OCc2ccc(-c3ccccc3)cc2)[C@@H]1O` (stereo partly drawn) [Compound 46] the “SSTR5 Inhib 0.5 uM %” value was 71% and the “SSTR5 Inhib 10 uM %” value was 93%.

For `CSC1O[C@H](COCc2ccc3ccccc3c2)[C@@H](O)[C@@H](OCc2ccc(Cl)cc2)[C@H]1NC(=O)CCN` (stereo partly drawn) [Compound 158], the “SSTR5 Inhib 0.5 uM %” value was 36% and the “SSTR5 Inhib 10 uM %” value was 75%.

For `CO[C@H]1[C@H](O)[C@@H](COCc2ccc(-c3ccccc3)cc2)OC(OCc2ccc(Cl)cc2)[C@@H]1NC(=O)CCCNC(=N)N` (stereo partly drawn) [Compound 67], the “SSTR5 Inhib 0.5 uM %” value was 48% and the “SSTR5 Inhib 10 uM %” value was 89%.

`COC[C@H]1OC(OCc2ccc(Cl)cc2)[C@H](NC(=O)CCCN)[C@H](OCc2ccc(Cl)cc2)[C@@H]1O` (stereo partly drawn) [Compound 41] was tested, and the “SSTR5 Inhib 0.5 uM %” value was 83% and the “SSTR5 Inhib 10 uM %” value was 94%.

In the case of `COC[C@H]1OC(OCc2ccc(Cl)cc2)[C@H](NC(=O)CCCNC(=N)N)[C@@H](OCc2ccc3ccccc3c2)[C@@H]1O` (stereo partly drawn) [Compound 160], the “SSTR5 Inhib 0.5 uM %” value is reported as 40% and the “SSTR5 Inhib 10 uM %” value is reported as 74%.

In the case of `COC[C@H]1OC(OCc2ccccc2)[C@H](NC(=O)CNC(=N)N)[C@H](OCc2ccc3ccccc3c2)[C@@H]1O` (stereo partly drawn) [Compound 162], the “SSTR5 Inhib 0.5 uM %” value is reported as 30% and the “SSTR5 Inhib 10 uM %” value is reported as 74%.

In the case of `COC[C@H]1OC(OCc2ccc(-c3ccccc3)cc2)[C@H](NC(=O)CCCNC(=N)N)[C@@H](OCc2ccc3ccccc3c2)[C@@H]1O` (stereo partly drawn) [Compound 178], the “SSTR5 Inhib 0.5 uM %” value is reported as 39% and the “SSTR5 Inhib 10 uM %” value is reported as 71%.

In the case of `CO[C@@H]1[C@H](O)[C@@H](COCc2ccc3ccccc3c2)OC(OCc2ccc(Cl)cc2)[C@@H]1NC(=O)C1CCCN(C(=N)N)C1` (stereo partly drawn) [Compound 69], the “SSTR5 Inhib 0.5 uM %” value is reported as 67% and the “SSTR5 Inhib 10 uM %” value is reported as 89%.

`COC[C@H]1OC(OCc2ccc(Cl)cc2)[C@H](NC(=O)CCN)[C@H](OCc2ccc(Cl)cc2)[C@@H]1O` (stereo partly drawn) [Compound 39] was tested, and the “SSTR5 Inhib 0.5 uM %” value was 74% and the “SSTR5 Inhib 10 uM %” value was 95%.

`COC[C@H]1OC(OCCc2ccccc2)[C@H](NC(=O)CCCNC(=N)N)[C@@H](OCc2ccc(Cl)cc2)[C@@H]1O` (stereo partly drawn) [Compound 168] was tested, and the “SSTR5 Inhib 0.5 uM %” value was 47% and the “SSTR5 Inhib 10 uM %” value was 72%.

In the case of `CSC1O[C@H](COCc2ccc(Cl)cc2)[C@@H](O)[C@@H](OCc2ccc3ccccc3c2)[C@H]1NC(=O)CCCN` (stereo partly drawn) [Compound 153], the “SSTR5 Inhib 0.5 uM %” value is reported as 34% and the “SSTR5 Inhib 10 uM %” value is reported as 76%.

With `COC[C@H]1OC(OCc2ccc(-c3ccccc3)cc2)[C@H](NC(=O)CNC(=N)N)[C@@H](OCc2ccc(-c3ccccc3)cc2)[C@@H]1O` (stereo partly drawn) [Compound 129] the “SSTR5 Inhib 0.5 uM %” value was 36% and the “SSTR5 Inhib 10 uM %” value was 80%.

`COC[C@H]1OC(OCc2ccccc2)[C@H](NC(=O)CCCNC(=N)N)[C@H](OCc2ccc(Cl)cc2)[C@@H]1O` (stereo partly drawn) [Compound 138] was tested, and the “SSTR5 Inhib 0.5 uM %” value was 39% and the “SSTR5 Inhib 10 uM %” value was 79%.

For `COC1C(O)C(COCc2ccc(-c3ccccc3)cc2)OC(OCc2ccccc2)C1NC(=O)CCCNC(=N)N` (stereo not drawn) [Compound 171], the “SSTR5 Inhib 0.5 uM %” value was 44% and the “SSTR5 Inhib 10 uM %” value was 72%.

For `COC[C@H]1OC(OCc2ccc(-c3ccccc3)cc2)[C@H](NC(=O)CCCN)[C@@H](OCc2ccc(-c3ccccc3)cc2)[C@@H]1O` (stereo partly drawn) [Compound 80], the “SSTR5 Inhib 0.5 uM %” value was 44% and the “SSTR5 Inhib 10 uM %” value was 88%.

With `COC[C@H]1OC(OCCc2ccccc2)[C@H](NC(=O)CCCN)[C@@H](OCc2ccc3ccccc3c2)[C@@H]1O` (stereo partly drawn) [Compound 44] the “SSTR5 Inhib 0.5 uM %” value was 78% and the “SSTR5 Inhib 10 uM %” value was 94%.

With `CO[C@H]1[C@H](O)[C@@H](COCc2ccc(-c3ccccc3)cc2)OC(OCc2ccc3ccccc3c2)[C@@H]1NC(=O)CCCN` (stereo partly drawn) [Compound 161] the “SSTR5 Inhib 0.5 uM %” value was 51% and the “SSTR5 Inhib 10 uM %” value was 74%.
